{"source": "patent US20260234116A1", "about": "“CYTOTOXIC EPOXYKETONE COMPOUNDS, PRECURSORS, COMPOSITIONS, AND METHODS OF USE” (Memorial Sloan-Kettering Cancer Center, priority 2023, published 2026)", "experiment": "Stability of β-ketoacid substrates (decarboxylation, 1H-NMR or SPE-MS/MS)", "format": "physicochemical", "procedure": "To assess rates of decarboxylation under conditions relevant to storage, biochemical assays, and cellular assays, we investigated the stability of eponemycin-based β-ketoacids 11a and 11c under a variety of conditions as shown in below Table C.\nFor samples stored neat, β-ketoacid 11 (lyophilized powder) was aliquoted into 1.5-2 mg samples in glass vials and placed under Ar. Samples were stored on the bench top (20-25° C.), in at 4° C. refrigerator or in a −20° C. freezer. At each time point, an entire aliquot was dissolved in CD3OD (600 μL) analyzed by ^1H-NMR for decarboxylation to the corresponding isopropyl ketone byproduct 22. The degree of decarboxylation was determined by comparing integrations of two singlet peaks at 1.40 and 1.33 ppm, arising from the α,α-dimethyl groups in the β-ketoacid 11, to two doublet peaks at 1.09 and 1.06 ppm, arising from the isopropyl methyl groups in the decarboxylation product 22. A septuplet corresponding to the methine proton of the isopropyl group was also observed at 2.91 ppm.\nFor samples stored in PBS, aliquots of β-ketoacid 11 were dissolved in deuterated PBS (600 μL) and incubated in a 37° C. shaking incubator. At each time point, one aliquot was removed and analyzed by ^1H-NMR as above. NMR changes observed in deuterated PBS were similar to those observed in CD3OD above.\nFor samples stored in RPMI, β-ketoacid 11 (lyophilized powder) was dissolved in EtOH to a working stock concentration of 20 mM. The sample was diluted in RPMI to 100 μM (1000 μL) and incubated at 37° C. At each time point, an aliquot (50 μL) was removed from the master sample, transferred to a 96-well plate, quenched with 4 vol MeOH, centrifuged at 4,000 g to precipitate debris, and immediately analyzed by SPE-MS/MS to quantitate β-ketoacid 11 remaining.", "data": [{"molecule": "CC(C)CCCCC(=O)N[C@@H](CO)C(=O)N[C@@H](CC(C)C)C(=O)C(C)(C)C(=O)O", "note": "[Compound 11a, (4S)-4-[(2S)-3-Hydroxy-2-(6-methylheptanamido)propanamido]-2,2,6-trimethyl-3-oxoheptanoic acid]", "values": [{"measurement": "half-life at 100 μM", "setting": "RPMI medium, RPMI, 37° C.", "result": 2.5, "unit": "h"}, {"measurement": "half-life", "setting": "deuterated PBS, PBS, 37° C.", "result": 4.5, "unit": "h"}, {"measurement": "stability / rate of decarboxylation (in words)", "setting": "neat at low temperatures, buffer or media at 37° C.", "result": "fairly stable when stored neat at low temperatures"}, {"measurement": "half-life", "setting": "neat lyophilized powder, neat, 4° C.", "result": "> 336", "unit": "h"}, {"measurement": "half-life", "setting": "neat lyophilized powder, neat, 25° C.", "result": 120, "unit": "h"}, {"measurement": "half-life", "setting": "neat lyophilized powder, neat, −20° C.", "result": "> 336", "unit": "h"}, {"measurement": "% remaining at last time point", "setting": "neat, 4° C.", "result": "d (80%)"}, {"measurement": "% remaining at last time point", "setting": "neat, −20° C.", "result": "d (95%)"}]}]}
